Reference: the supplement of paper PMC10307832

Tests used:
Assay in all cases: relative viability (nuclei count vs DMSO), 5 days (fraction); higher = more cells survive
[1] = compound: C[C@]1(O)C[C@@H](c2nc(-c3ccc4ccc(-c5ccccc5)nc4c3)c3c(N)nccn32)C1 [Linsitinib] + CC(=O)c1c(C)c2cnc(Nc3ccc(N4CCNCC4)cn3)nc2n(C2CCCC2)c1=O [Palbociclib] (partner 0.5 µM)
Outline: (§1)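 Lung cancer cell lines, seeded in 1536-well plates, were treated the following day by pin tool with a single drug or with five library-drug doses (not always all listed) in √10 steps on top of a fixed anchor-drug dose. Cells were fixed and nuclei stained in one step after 5 days, and nuclei were counted. Relative viability is the nuclei count for treated wells divided by that for vehicle wells, reported as medians of duplicate plates.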

[2] = compound: Cc1ccc(C(=O)N(CCCN)[C@@H](c2nc3cc(Cl)ccc3c(=O)n2Cc2ccccc2)C(C)C)cc1 [Ispinesib] + CCNC(=O)c1noc(-c2cc(C(C)C)c(O)cc2O)c1-c1ccc(CN2CCOCC2)cc1 [Luminespib] (partner 0.01 µM)
Outline: as §1

[3] = compound: Cc1ccc(C(=O)N(CCCN)[C@@H](c2nc3cc(Cl)ccc3c(=O)n2Cc2ccccc2)C(C)C)cc1 [Ispinesib] + COc1cc2c(Oc3ccc(NC(=O)C4(C(=O)Nc5ccc(F)cc5)CC4)cc3F)ccnc2cc1OCCCN1CCOCC1 [Foretinib] (partner 0.25 µM)
Outline: as §1

[4] = compound: Cc1ccc(C(=O)N(CCCN)[C@@H](c2nc3cc(Cl)ccc3c(=O)n2Cc2ccccc2)C(C)C)cc1 [Ispinesib] + Nc1ncn([C@H]2C[C@H](O)[C@@H](CO)O2)c(=O)n1 [Decitabine] (partner 2 µM)
Outline: as §1

| Cell Line | relative viability ([1]; first compound 0.01 µM) | relative viability ([1]; first compound 0.03162 µM) | relative viability ([1]; first compound 0.1 µM) | relative viability ([1]; first compound 0.3162 µM) | relative viability ([1]; first compound 1 µM) | relative viability ([2]; first compound 0.001 µM) | relative viability ([2]; first compound 0.003162 µM) | relative viability ([2]; first compound 0.01 µM) | relative viability ([2]; first compound 0.03162 µM) | relative viability ([2]; first compound 0.1 µM) | relative viability ([3]; first compound 0.001 µM) | relative viability ([3]; first compound 0.003162 µM) | relative viability ([3]; first compound 0.01 µM) | relative viability ([3]; first compound 0.03162 µM) | relative viability ([3]; first compound 0.1 µM) | relative viability ([4]; first compound 0.001 µM) | relative viability ([4]; first compound 0.003162 µM) | relative viability ([4]; first compound 0.01 µM) | relative viability ([4]; first compound 0.03162 µM) | relative viability ([4]; first compound 0.1 µM) |
| --- | --- | --- | --- | --- | --- | --- | --- | --- | --- | --- | --- | --- | --- | --- | --- | --- | --- | --- | --- | --- |
| NCI-H322M | 0.475 | 0.521 | 0.492 | 0.478 | 0.463 | 0.992 | 0.888 | 0.729 | 0.612 | 0.58 | 1.09 | 0.994 | 0.957 | 0.498 | 0.43 | 0.744 | 0.771 | 0.697 | 0.666 | 0.559 |
| NCI-H358 | 0.144 | 0.14 | 0.121 | 0.113 | 0.107 | 0.424 | 0.435 | 0.549 | 0.405 | 0.259 | 0.694 | 0.695 | 0.702 | 0.28 | 0.123 | 0.187 | 0.205 | 0.213 | 0.109 | 0.139 |
| NCI-H441 | 0.197 | 0.226 | 0.199 | 0.138 | 0.119 | 0.346 | 0.404 | 0.448 | 0.389 | 0.292 | 0.926 | 1 | 1.19 | 0.419 | 0.291 | 0.216 | 0.139 | 0.192 | 0.18 | 0.193 |
| NCI-H460 | 0.192 | 0.0289 | 0.184 |  | 0.142 | 0.022 | 0.0333 | 0.0413 | 0.0267 | 0.0268 | 0.901 | 0.995 | 1.13 | 0.879 | 0.0487 | 0.533 | 0.516 | 0.699 | 0.146 | 0.0478 |
| NCI-H520 | 0.175 | 0.212 | 0.244 |  | 0.215 | 0.24 | 0.17 | 0.207 | 0.206 | 0.204 | 0.906 | 0.832 | 0.866 | 0.379 | 0.306 | 0.54 | 0.469 | 0.33 | 0.226 | 0.227 |
| NCI-H647 | 0.377 | 0.459 | 0.32 | 0.171 | 0.322 | 0.172 | 0.28 | 0.233 | 0.229 | 0.151 | 1.26 | 1.32 | 1.41 | 0.703 | 0.191 | 0.49 | 0.409 | 0.326 | 0.179 | 0.157 |
| NCI-H650 | 0.348 | 0.364 | 0.339 |  | 0.291 | 0.739 | 0.836 | 0.808 | 0.621 | 0.783 | 1.04 | 1.04 | 1.09 | 0.985 | 0.896 | 0.289 | 0.325 | 0.328 | 0.33 | 0.306 |
| NCI-H661 | 0.41 | 0.433 | 0.381 | 0.379 | 0.412 | 0.926 | 0.913 | 0.921 | 0.586 | 0.224 | 0.943 | 1.03 | 0.988 | 0.71 | 0.27 | 0.614 | 0.567 | 0.511 | 0.264 | 0.231 |
